Data as given in patent US6863833B1, “Microfabricated apertures for supporting bilayer lipid membranes” (The Board of Trustees of the Leland Stanford Junior …, priority 2001, dated 2005).

Experiments:
[1] = biological target: staphylococcal α-hemolysin (αHL) channels (Staphylococcus aureus, UniProt P09616); assay type: biochemical
[2] = Gramicidin D conductance change in lipid bilayer formed across nanoaperture; assay type: biochemical; conditions: 5 to 20 μl of 2 mg/ml gD in ethanol added to each bath; within minutes; capacitance remained constant
Text: Lipid bilayers were formed by the method of Montal and Mueller (1972). In practicing the Langmuir-Blodgett technique, one raises two lipid monolayers across an aperture, allowing the lipids to align their hydrophobic tail portions across the aperture so as to form a lipid bilayer. Because of the hydrophobic nature of the lipid tails, in order to form stable bilayers the surface of a BSP must also be hydrophobic. If the substrate is hydrophobic, the lipids can smoothly transition from coating the substrate to spanning the aperture. To reverse the wetting properties of the naturally hydrophilic silicon nitride, the silicon nitride was coated with an alkylsilane (octyltrichlorosilane). Application of this coating was quite simple and very effective. It was not found to be possible to form a bilayer with untreated devices. Use of longer carbon chain silanes or alternative-materials to make the surface even more hydrophobic would further increase bilayer stability.
For smaller apertures, it was more difficult to observe the capacitance change the background. In this case, membrane-bound proteins that affect the electrical properties of the bilayer, such as carriers and ion channels, offered the best proof of the formation of a bilayer. The ion channel peptide Gramicidin D (gD), was chosen for ease of use and large conductance change. […]

Chain of staphylococcal α-hemolysin (αHL) channels (P09616 27-319 limits assumed): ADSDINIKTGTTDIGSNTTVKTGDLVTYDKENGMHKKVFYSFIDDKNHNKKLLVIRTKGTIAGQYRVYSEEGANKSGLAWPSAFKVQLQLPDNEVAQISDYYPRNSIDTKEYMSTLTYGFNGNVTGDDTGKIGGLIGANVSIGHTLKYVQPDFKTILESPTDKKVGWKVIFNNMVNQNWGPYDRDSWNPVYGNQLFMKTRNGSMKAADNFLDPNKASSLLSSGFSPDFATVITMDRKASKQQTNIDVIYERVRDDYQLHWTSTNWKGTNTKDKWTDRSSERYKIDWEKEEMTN

Row | Compound | current reduction when a channel becomes blocked [1] [%] | conductance of the bilayer [2]
1 | OC[C@H]1O[C@@H]2O[C@H]3[C@H](O)[C@@H](O)[C@@H](O[C@H]4[C@H](O)[C@@H](O)[C@@H](O[C@H]5[C@H](O)[C@@H](O)[C@@H](O[C@H]6[C@H](O)[C@@H](O)[C@@H](O[C@H]7[C@H](O)[C@@H](O)[C@@H](O[C@H]8[C@H](O)[C@@H](O)[C@@H](O[C@H]1[C@H](O)[C@H]2O)O[C@@H]8CO)O[C@@H]7CO)O[C@@H]6CO)O[C@@H]5CO)O[C@@H]4CO)O[C@@H]3CO [βCD, β-cyclodextrin] | 70±4 | –
2 | Gramicidin D | – | dramatically increased
